Marks after values point to notes of the source that are not given here.
How the values were obtained:
[1] = test system: RETICULO SARCOME M5076 MURIN; assay: Antitumour activity on murine M5076 reticulum sarcoma implanted i.m. in mice; type: in vivo, souris C57Bl/6; conditions: for Poids corporel (g±S.E.) / Poids de la rate (mg±S.E.) / Poids de la tumeur (g±S.E.) / Poids du foie (g±S.E.): jour 23; for nombre de souris vivantes/total: Tableau 5
Text: (§1) Les tests d'activité antitumorale ont été conduits au sein du Screening and Pharmacology Group de l'E.O.R.T.C., implanté à l'Institut Mario Negri de Milan.
(§2) Ces essais ont été conduits soit en mono-injection à différentes doses au jour J+1 suivant la greffe de la tumeur, soit en poly-injections chroniques Q1D, soit en protocoles Q4D.

[2] = test system: CARCINOME DU POUMON DE LEWIS; assay: Antitumour activity on Lewis lung carcinoma implanted i.m. in mice; type: in vivo, souris C57Bl/6
Text: as §1, §2

[3] = 100 mg/kg i.p. x j 1-9, jour 21
[4] = 150 mg/kg i.p. x j 1,5,9, jour 14
[5] = 150 mg/kg i.p. x j 1,5,9, jour 21
[6] = 150 mg/kg i.p. x j 1-9, jour 21
[7] = 200 mg/kg i.p. x j 1,5,9, jour 14
[8] = 200 mg/kg i.p. x j 1,5,9, jour 21
[9] = 250 mg/kg i.p. x j 1,5,9, jour 14
[10] = 250 mg/kg i.p. x j 1,5,9, jour 21
[11] = 300 mg/kg i.p. x j 1,5,9, jour 21
[12] = 200 mg/kg i.p. x j 1,5,9, sacrifice jour 25

For C(CCN1CCCNP12=NP(N1CC1)(N1CC1)=NP(N1CC1)(N1CC1)=N2)CN1CCCNP12=NP(N1CC1)(N1CC1)=NP(N1CC1)(N1CC1)=N2 (stereo not shown) [SPM], the “Volume moyen de la tumeur (cm^3 ± S.E.)” value ([1]; 50 mg/kg i.p. x j 1-9, jour 14) was 0,38±0,01 cm^3, the “nombre de souris avec tumeur/total” value ([1]; 50 mg/kg i.p. x j 1-9, jour 14) was 4/10 and the “Volume moyen de la tumeur (cm^3 ± S.E.)” value ([1]; 50 mg/kg i.p. x j 1-9, jour 21) was 2,03±0,17 cm^3. For the same compound, the “nombre de souris avec tumeur/total” value ([1]; 50 mg/kg i.p. x j 1-9, jour 21) was 9/9, the “Poids corporel (g±S.E.)” value ([1]; 50 mg/kg i.p. x j 1-9) was 20,05±0,60 g and the “Poids de la rate (mg±S.E.)” value ([1]; 50 mg/kg i.p. x j 1-9) was 206,8±12,0 mg. The “Poids de la tumeur (g±S.E.)” value ([1]; 50 mg/kg i.p. x j 1-9) was 3,4033±0,26 g, the “Poids du foie (g±S.E.)” value ([1]; 50 mg/kg i.p. x j 1-9) was 1,6089±0,10 g and the “nombre de souris avec tumeur/total” value ([1]; 100 mg/kg i.p. x j 1-9, jour 14) was “- (0/10)”. For the same compound, the “Volume moyen de la tumeur (cm^3 ± S.E.)” value [1, 3] was 0,92±0,03 cm^3, the “nombre de souris avec tumeur/total” value [1, 3] was 12/12 and the “Poids corporel (g±S.E.)” value ([1]; 100 mg/kg i.p. x j 1-9) was 20,22±0,37 g. For the same compound, the “Poids de la rate (mg±S.E.)” value ([1]; 100 mg/kg i.p. x j 1-9) was 137,9±5,04 mg, the “Poids de la tumeur (g±S.E.)” value ([1]; 100 mg/kg i.p. x j 1-9) was 2,1947±0,07 g and the “Poids du foie (g±S.E.)” value ([1]; 100 mg/kg i.p. x j 1-9) was 1,1750±0,03 g. The “Volume moyen de la tumeur (cm^3 ± S.E.)” value [1, 4] was 0,41±0,04 cm^3, the “nombre de souris avec tumeur/total” value [1, 4] was 4/10 and the “Volume moyen de la tumeur (cm^3 ± S.E.)” value [1, 5] was 2,23±0,16 cm^3. The “nombre de souris avec tumeur/total” value [1, 5] was 10/10, the “Poids corporel (g±S.E.)” value ([1]; 150 mg/kg i.p. x j 1,5,9) was 21,55±0,29 g and the “Poids de la rate (mg±S.E.)” value ([1]; 150 mg/kg i.p. x j 1,5,9) was 240,7±17,1 mg. For the same compound, the “Poids de la tumeur (g±S.E.)” value ([1]; 150 mg/kg i.p. x j 1,5,9) was 3,5869±0,18 g, the “Poids du foie (g±S.E.)” value ([1]; 150 mg/kg i.p. x j 1,5,9) was 1,7270±0,10 g and the “nombre de souris avec tumeur/total” value ([1]; 150 mg/kg i.p. x j 1-9, jour 14) was “- (0/10)”. The “Volume moyen de la tumeur (cm^3 ± S.E.)” value [1, 6] was 0,72±0 cm^3, the “nombre de souris avec tumeur/total” value [1, 6] was 1/10 and the “Poids corporel (g±S.E.)” value ([1]; 150 mg/kg i.p. x j 1-9) was 17,55±0,70 g. For the same compound, the “Poids de la rate (mg±S.E.)” value ([1]; 150 mg/kg i.p. x j 1-9) was 103,0±6,02 mg, the “Poids de la tumeur (g±S.E.)” value ([1]; 150 mg/kg i.p. x j 1-9) was 1,0795±0,11 g and the “Poids du foie (g±S.E.)” value ([1]; 150 mg/kg i.p. x j 1-9) was 1,0190±0,03 g. For the same compound, the “Volume moyen de la tumeur (cm^3 ± S.E.)” value [1, 7] was 0,36±0,04 cm^3, the “nombre de souris avec tumeur/total” value [1, 7] was 2/10 and the “Volume moyen de la tumeur (cm^3 ± S.E.)” value [1, 8] was 2,02±0,26 cm^3. For the same compound, the “nombre de souris avec tumeur/total” value [1, 8] was 10/10, the “Poids corporel (g±S.E.)” value ([1]; 200 mg/kg i.p. x j 1,5,9) was 21,05±0,39 g and the “Poids de la rate (mg±S.E.)” value ([1]; 200 mg/kg i.p. x j 1,5,9) was 208,6± 8,8 mg. The “Poids de la tumeur (g±S.E.)” value ([1]; 200 mg/kg i.p. x j 1,5,9) was 3,2003±0,18 g, the “Poids du foie (g±S.E.)” value ([1]; 200 mg/kg i.p. x j 1,5,9) was 1,4620±0,08 g and the “nombre de souris avec tumeur/total” value ([1]; 200 mg/kg i.p. x j 1-9, jour 14) was “- (0/10)”. The “nombre de souris avec tumeur/total” value ([1]; 200 mg/kg i.p. x j 1-9, jour 21) was “- (0/10)”, the “Poids corporel (g±S.E.)” value ([1]; 200 mg/kg i.p. x j 1-9) was 17,20±0,48 g and the “Poids de la rate (mg±S.E.)” value ([1]; 200 mg/kg i.p. x j 1-9) was 117,8±9,9 mg. The “Poids de la tumeur (g±S.E.)” value ([1]; 200 mg/kg i.p. x j 1-9) was 0,3819±0,13 g, the “Poids du foie (g±S.E.)” value ([1]; 200 mg/kg i.p. x j 1-9) was 1,1088±0,01 g and the “Volume moyen de la tumeur (cm^3 ± S.E.)” value [1, 9] was 0,32 cm^3. For the same compound, the “nombre de souris avec tumeur/total” value [1, 9] was 1/9, the “Volume moyen de la tumeur (cm^3 ± S.E.)” value [1, 10] was 1,02±0,08 cm^3 and the “nombre de souris avec tumeur/total” value [1, 10] was 8/9. The “Poids corporel (g±S.E.)” value ([1]; 250 mg/kg i.p. x j 1,5,9) was 20,16±0,47 g, the “Poids de la rate (mg±S.E.)” value ([1]; 250 mg/kg i.p. x j 1,5,9) was 144,5± 7,3 mg and the “Poids de la tumeur (g±S.E.)” value ([1]; 250 mg/kg i.p. x j 1,5,9) was 2,4530±0,18 g. The “Poids du foie (g±S.E.)” value ([1]; 250 mg/kg i.p. x j 1,5,9) was 1,2015±0,04 g, the “nombre de souris avec tumeur/total” value ([1]; 300 mg/kg i.p. x j 1,5,9, jour 14) was “- (0/10)” and the “Volume moyen de la tumeur (cm^3 ± S.E.)” value [1, 11] was 0,94±0,09 cm^3. The “nombre de souris avec tumeur/total” value [1, 11] was 9/10, the “Poids corporel (g±S.E.)” value ([1]; 300 mg/kg i.p. x j 1,5,9) was 20,20±0,53 g and the “Poids de la rate (mg±S.E.)” value ([1]; 300 mg/kg i.p. x j 1,5,9) was 125,6±10,8 mg. The “Poids de la tumeur (g±S.E.)” value ([1]; 300 mg/kg i.p. x j 1,5,9) was 2,2664±0,19 g, the “Poids du foie (g±S.E.)” value ([1]; 300 mg/kg i.p. x j 1,5,9) was 1,2654±0,06 g and the “nombre de souris vivantes/total” value ([1]; 250 mg/kg i.p. x j 1,5,9) was 250 " ( 9/9 ). The “nombre de souris vivantes/total” value ([1]; 300 mg/kg i.p. x j 1,5,9) was 300xj 1,5,9 (10/10), the “Volume de la tumeur (d^2.D/2)cm^3 ± S.E.” value ([2]; 200 mg/kg i.p. x j 1,5,9, jour 10) was 0,53±0,08 cm^3 and the “Volume de la tumeur (d^2.D/2)cm^3 ± S.E.” value ([2]; 200 mg/kg i.p. x j 1,5,9, jour 13) was 1,64±0,18 cm^3. The “Volume de la tumeur (d^2.D/2)cm^3 ± S.E.” value ([2]; 200 mg/kg i.p. x j 1,5,9, jour 17) was 3,49±0,15* cm^3, the “Volume de la tumeur (d^2.D/2)cm^3 ± S.E.” value ([2]; 200 mg/kg i.p. x j 1,5,9, jour 20) was 4,35±0,26* cm^3 and the “Volume de la tumeur (d^2.D/2)cm^3 ± S.E.” value ([2]; 200 mg/kg i.p. x j 1,5,9, jour 24) was 6,08±0,31* cm^3. For the same compound, the “Métastases Nombre moyen (N ± S.E.)” value [2, 12] was 14 ± 3,4, the “Métastases Poids moyen (mg ± S.E.)” value [2, 12] was 127,3 ± 43,1 mg and the “Poids moyen de la tumeur (g ± S.E.)” value [2, 12] was 7,40 ± 0,33 g. For the same compound, the “activité sur le carcinome du poumon de Lewis (result in words)” value ([2]; souris C57B1/6) was “intéressante activité”.

— patent EP0240392A1, “Compounds of the cyclophosphazene type, process for their preparation and pharmaceutical preparation containing them” (CENTRE NATIONAL DE LA RECHERCHE SCIENTIFIQUE (CNRS), priority 1986, dated 1987)
